Measurements taken from patent US7482379B2, “Propenoyl hydrazides” (priority 2004, dated 2009).

Experiments:
[1] = biological target: T1, Caspase-2 (Homo sapiens, UniProt P42575); assay: Caspase-2 progress curve inhibition assay; settings: second-order rate constant; Cbz-VDVAD-AFC substrate; Pipes buffer pH 7.2
T1 sequence (P42575 170-333 limits assumed): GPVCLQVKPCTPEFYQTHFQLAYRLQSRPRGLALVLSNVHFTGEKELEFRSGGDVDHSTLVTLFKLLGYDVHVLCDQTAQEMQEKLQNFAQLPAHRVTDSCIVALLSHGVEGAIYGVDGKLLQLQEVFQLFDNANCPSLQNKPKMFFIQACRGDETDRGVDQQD
T1 sequence (P42575 348-452 limits assumed): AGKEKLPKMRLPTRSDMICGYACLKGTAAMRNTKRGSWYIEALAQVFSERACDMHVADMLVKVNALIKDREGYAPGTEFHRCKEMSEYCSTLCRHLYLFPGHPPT
Method: Inhibition rates were determined by the progress curve method known in the art. This method is suitable for measuring irreversible inhibition rates with fast inhibitors, where the inhibitor, the substrate and the enzyme are incubated together and the rate of substrate hydrolysis is measured continuously. The rate of substrate hydrolysis in the presence of the inhibitor was monitored for 20 minutes. The progress curve of inhibition, where the product formation approaches an asymptote is described in the equation ln([P∞]−[P])=ln[P∞]−A[I]t where [P] and [P∞] are the product concentrations at t and t=∞ respectively, A is the apparent rate constant in the presence of the substrate. The apparent rate constants were determined from the slopes of plots of ln ([P∞]−[P]) versus time (t) in seconds as previously described, where A=slope/[I].
(§1) For competitive and irreversible inhibition, the apparent rate constant is converted to the second order rate constant k2 by taking into consideration the effect of the substrate concentration on the apparent rate constant. The second order rate constant is described as in the equation: k2=A*(1+[S]/KM)
(§2) The concentration of the caspase-3 stock solution was 2 nM in the assay buffer. Assay buffer is a 1:1 mixture of caspase buffer (40 mM Pipes, 200 mM NaCl, 0.2% (w/v) CHAPS, sucrose 20% (w/v)) and 20 mM DTT solution in H2O at pH 7.2. The concentration of the substrate stock solution was 2 mM in DMSO. The enzyme was pre-activated for 10 min at 37° C. in the assay buffer. […] 50 μL of 2 nM enzyme stock solution (final concentration: 1 nM) was added to the mixture after 1 min and reading started immediately for 20 min at 37° C. Inhibition experiments were repeated in duplicate and standard deviations determined.
The inhibitor stock solution concentrations varied from 5×10^−3 M to 1×10^−4 M in DMSO.

[2] = biological target: T2, Caspase-3 (Homo sapiens, UniProt P42574); assay: Caspase-3 progress curve inhibition assay; settings: second-order rate constant; Ac-DEVD-AMC substrate; Pipes buffer pH 7.2
T2 sequence (P42574 29-175 limits assumed): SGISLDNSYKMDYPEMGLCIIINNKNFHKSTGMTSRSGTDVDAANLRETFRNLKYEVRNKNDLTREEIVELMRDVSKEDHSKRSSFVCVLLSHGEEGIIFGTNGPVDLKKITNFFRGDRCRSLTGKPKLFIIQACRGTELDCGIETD
T2 sequence (P42574 176-277 limits assumed): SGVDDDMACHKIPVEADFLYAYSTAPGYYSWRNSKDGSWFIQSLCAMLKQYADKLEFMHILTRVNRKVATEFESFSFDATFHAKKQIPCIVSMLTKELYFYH
Method: Caspase-2, -3, -6, -7, -8, -9 and -10. […] Inhibition rates were determined by the progress curve method known in the art. This method is suitable for measuring irreversible inhibition rates with fast inhibitors, where the inhibitor, the substrate and the enzyme are incubated together and the rate of substrate hydrolysis is measured continuously. The rate of substrate hydrolysis in the presence of the inhibitor was monitored for 20 minutes. The progress curve of inhibition, where the product formation approaches an asymptote is described in the equation ln([P∞]−[P])=ln[P∞]−A[I]t where [P] and [P∞] are the product concentrations at t and t=∞ respectively, A is the apparent rate constant in the presence of the substrate. The apparent rate constants were determined from the slopes of plots of ln ([P∞]−[P]) versus time (t) in seconds as previously described, where A=slope/[I].
as §1, §2

[3] = biological target: T3, Caspase-6 (Homo sapiens, UniProt P55212); assay: Caspase-6 progress curve inhibition assay; settings: second-order rate constant; Ac-DEVD-AMC substrate; Pipes buffer pH 7.2
T3 sequence (P55212 24-179 limits assumed): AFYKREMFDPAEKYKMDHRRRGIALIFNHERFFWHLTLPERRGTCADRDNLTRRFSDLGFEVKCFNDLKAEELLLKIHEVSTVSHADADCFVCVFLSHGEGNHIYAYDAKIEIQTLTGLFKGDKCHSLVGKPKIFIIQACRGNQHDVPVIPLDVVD
T3 sequence (P55212 194-293 limits assumed): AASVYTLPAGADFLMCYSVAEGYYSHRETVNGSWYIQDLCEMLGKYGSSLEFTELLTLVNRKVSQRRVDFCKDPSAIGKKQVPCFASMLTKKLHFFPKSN

[4] = biological target: T4, Caspase-7 (Homo sapiens, UniProt P55210); assay: Caspase-7 progress curve inhibition assay; settings: second-order rate constant; Ac-DEVD-AMC substrate; Pipes buffer pH 7.2
T4 sequence (P55210 24-198 limits assumed): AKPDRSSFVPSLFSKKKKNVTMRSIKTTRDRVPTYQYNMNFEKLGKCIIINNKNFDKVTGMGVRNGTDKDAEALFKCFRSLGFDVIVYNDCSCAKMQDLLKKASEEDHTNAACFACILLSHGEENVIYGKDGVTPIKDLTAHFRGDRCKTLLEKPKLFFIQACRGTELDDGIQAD
T4 sequence (P55210 207-303 limits assumed): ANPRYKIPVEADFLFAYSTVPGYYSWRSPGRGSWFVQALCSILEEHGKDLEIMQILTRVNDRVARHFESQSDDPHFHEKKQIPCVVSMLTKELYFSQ

[5] = biological target: Caspase-8 (Homo sapiens, UniProt Q14790); assay: Caspase-8 progress curve inhibition assay; settings: second-order rate constant; Ac-DEVD-AMC substrate; Pipes buffer pH 7.2
[6] = biological target: T5, Caspase-9 (Homo sapiens, UniProt P55211); assay: Caspase-9 progress curve inhibition assay; settings: second-order rate constant; Ac-LEHD-AFC substrate; Hepes buffer pH 7.0 with 0.7 M sodium citrate
T5 sequence (P55211 1-315 limits assumed): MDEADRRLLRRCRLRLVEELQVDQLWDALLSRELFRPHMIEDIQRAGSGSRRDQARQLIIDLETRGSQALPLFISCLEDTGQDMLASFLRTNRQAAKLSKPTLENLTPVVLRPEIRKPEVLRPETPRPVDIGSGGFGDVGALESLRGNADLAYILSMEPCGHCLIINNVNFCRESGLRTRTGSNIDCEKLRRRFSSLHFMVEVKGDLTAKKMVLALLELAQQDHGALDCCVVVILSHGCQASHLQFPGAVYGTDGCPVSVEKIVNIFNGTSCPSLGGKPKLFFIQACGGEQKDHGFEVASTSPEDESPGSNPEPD
T5 sequence (P55211 331-416 limits assumed): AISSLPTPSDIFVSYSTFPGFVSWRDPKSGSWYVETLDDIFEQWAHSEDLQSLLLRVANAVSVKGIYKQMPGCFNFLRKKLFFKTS
Method: Caspases-2, -3, -6, -7, -8, -9 and -10 were expressed in E. coli and purified in Guy Salvesen's laboratory at the Burnham Institute, La Jolla, Calif., according to the methods known in the art. Inhibition rates were determined by the progress curve method known in the art. This method is suitable for measuring irreversible inhibition rates with fast inhibitors, where the inhibitor, the substrate and the enzyme are incubated together and the rate of substrate hydrolysis is measured continuously. The rate of substrate hydrolysis in the presence of the inhibitor was monitored for 20 minutes. The progress curve of inhibition, where the product formation approaches an asymptote is described in the equation ln([P∞]−[P])=ln[P∞]−A[I]t where [P] and [P∞] are the product concentrations at t and t=∞ respectively, A is the apparent rate constant in the presence of the substrate. The apparent rate constants were determined from the slopes of plots of ln ([P∞]−[P]) versus time (t) in seconds as previously described, where A=slope/[I].
as §1
Assay buffer is a 1:1 mixture of buffer (200 mM Hepes, 100 mM NaCl, 0.02% (w/v) CHAPS, sucrose 20% (w/v)) and 20 mM DTT solution in H2O at pH 7.0). The assay buffer was supplemented with 0.7 M sodium citrate. The enzyme was pre-activated for 10 min at 37° C. in the assay buffer.

[7] = biological target: T6, Caspase-10 (Homo sapiens, UniProt Q92851); assay: Caspase-10 progress curve inhibition assay; settings: second-order rate constant; Ac-DEVD-AMC substrate; Hepes/PEG buffer pH 7.0
T6 sequence (Q92851 220-415 limits assumed): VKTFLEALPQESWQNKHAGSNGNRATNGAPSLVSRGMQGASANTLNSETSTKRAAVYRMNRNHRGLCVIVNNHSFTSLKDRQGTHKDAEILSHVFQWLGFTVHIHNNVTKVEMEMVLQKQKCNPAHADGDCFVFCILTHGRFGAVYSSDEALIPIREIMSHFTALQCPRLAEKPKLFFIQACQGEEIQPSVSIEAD
T6 sequence (Q92851 416-521 limits assumed): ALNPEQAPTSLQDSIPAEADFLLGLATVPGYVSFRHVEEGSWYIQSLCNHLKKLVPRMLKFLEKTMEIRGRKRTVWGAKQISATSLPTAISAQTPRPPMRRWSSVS
Method: Caspase-2, -3, -6, -7, -8, -9 and -10. Caspases-2, -3, -6, -7, -8, -9 and -10 were expressed in E. coli and purified in Guy Salvesen's laboratory at the Burnham Institute, La Jolla, Calif., according to the methods known in the art. Inhibition rates were determined by the progress curve method known in the art. This method is suitable for measuring irreversible inhibition rates with fast inhibitors, where the inhibitor, the substrate and the enzyme are incubated together and the rate of substrate hydrolysis is measured continuously. The rate of substrate hydrolysis in the presence of the inhibitor was monitored for 20 minutes. The progress curve of inhibition, where the product formation approaches an asymptote is described in the equation ln([P∞]−[P])=ln[P∞]−A[I]t where [P] and [P∞] are the product concentrations at t and t=∞ respectively, A is the apparent rate constant in the presence of the substrate. The apparent rate constants were determined from the slopes of plots of ln ([P∞]−[P]) versus time (t) in seconds as previously described, where A=slope/[I].
as §1
Assay buffer is a 1:1 mixture of buffer (200 mM Hepes, 0.2% (w/v) CHAPS, PEG 20% (w/v)) and 20 mM DTT solution in H2O at pH 7.0). The enzyme was pre-activated for 10 min at 25° C. in the assay buffer.

Sequence of Caspase-8 (Q14790 217-374 limits assumed): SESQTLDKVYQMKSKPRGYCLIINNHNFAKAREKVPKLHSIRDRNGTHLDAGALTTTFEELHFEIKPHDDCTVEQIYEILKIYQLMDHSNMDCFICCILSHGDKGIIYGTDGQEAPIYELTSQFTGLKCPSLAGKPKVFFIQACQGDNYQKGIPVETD
Sequence of Caspase-8 (Q14790 385-479 limits assumed): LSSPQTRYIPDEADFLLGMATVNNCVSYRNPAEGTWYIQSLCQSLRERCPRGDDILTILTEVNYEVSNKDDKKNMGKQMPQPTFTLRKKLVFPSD

Row | Compound | k2 Caspase-2 [1] [M⁻¹ s⁻¹] | k2 Caspase-3 [2] | k2 Caspase-6 [3] | k2 Caspase-7 [4] | k2 Caspase-8 [5] | k2 Caspase-9 [6] | k2 Caspase-10 [7]
1 | CC[C@H](C)[C@H](NC(=O)OCc1ccccc1)C(=O)N[C@@H](CCC(=O)O)C(=O)N[C@H](C(=O)NN(CC(=O)O)C(=O)/C=C/C(=O)N(Cc1ccccc1)Cc1ccccc1)[C@@H](C)O (relative stereo) [Cbz-Ile-Glu-Thr-AAsp-CH═CH—CON(CH2Ph)2, N^2—(N-Benzyloxycarbonylisoleucylglutamylthreonyl)-N^1-carboxylmethyl-N^1-trans-(3-dibenzylcarbamoylpropenoyl)hydrazine] | 76 | 9,570 M^−1s^−1 | 83,900 M^−1s^−1 | 1,140 M^−1s^−1 | 39,500 M^−1s^−1 | 1,930 M^−1s^−1 | 7,930 M^−1s^−1
2 | CC[C@H](C)[C@H](NC(=O)OCc1ccccc1)C(=O)N[C@@H](CCC(=O)O)C(=O)N[C@H](C(=O)NN(CC(=O)O)C(=O)/C=C/C(=O)N(C)Cc1ccccc1)[C@@H](C)O (relative stereo) [Cbz-Ile-Glu-Thr-AAsp-CH═CH—CON(CH3)CH2Ph, N^1-trans-(3-Benzylmethylcarbamoylpropenoyl)-N^2—(N-benzyloxycarbonylisoleucylglutamylthreonyl)-N^1-carboxylmethylhydrazine] | 95 | 6,000 M^−1s^−1 | 45,900 M^−1s^−1 | 390 M⁻¹ s⁻¹ | 59,700 M^−1s^−1 | 845 M⁻¹ s⁻¹ | 8,500 M^−1s^−1
3 | CC[C@H](C)[C@H](NC(=O)OCc1ccccc1)C(=O)N[C@@H](CCC(=O)O)C(=O)N[C@H](C(=O)NN(CC(=O)O)C(=O)/C=C/C(=O)NCCc1ccccc1)[C@@H](C)O (relative stereo) [Cbz-Ile-Glu-Thr-AAsp-CH═CH—CONHCH2CH2Ph, N^2—(N-BenzyloxycarbonylisoleucylglutamyIthreonyl)-N^1-carboxylmethyl-N^1-trans-(3-phenyethylcarbamoylpropenoyl)hydrazine] | 30 | 4,750 M^−1s^−1 | 18,700 M^−1s^−1 | 440 M⁻¹ s⁻¹ | 71,000 M^−1s^−1 | 615 M⁻¹ s⁻¹ | 8,290 M^−1s^−1
4 | CC[C@H](C)[C@H](NC(=O)OCc1ccccc1)C(=O)N[C@@H](CCC(=O)O)C(=O)N[C@H](C(=O)NN(CC(=O)O)C(=O)/C=C/C(=O)NCc1ccccc1)[C@@H](C)O (relative stereo) [Cbz-Ile-Glu-Thr-AAsp-CH═CH—CONHCH2Ph, N^1-trans-(3-Benzylcarbamoylpropenoyl)-N^2—(N-benzyloxycarbonylisoleucylglutamylthreonyl)-N^1-carboxylmethylhydrazine] | 15 | 2,250 M^−1s^−1 | 16,800 M^−1s^−1 | 100 M⁻¹ s⁻¹ | 61,300 M^−1s^−1 | 440 M⁻¹ s⁻¹ | 503 M⁻¹ s⁻¹
5 | CC[C@H](C)[C@H](NC(=O)OCc1ccccc1)C(=O)N[C@@H](CCC(=O)O)C(=O)N[C@H](C(=O)NN(CC(=O)O)C(=O)/C=C/C(=O)Nc1ccccc1)[C@@H](C)O (relative stereo) [Cbz-Ile-Glu-Thr-AAsp-CH═CH—CONHPh, N^2—(N-Benzyloxycarbonylisoleucylglutamylthreonyl)-N^1-carboxylmethyl-N^1-trans-(3-phenylcarbamoylpropenoyl)hydrazine] | 365 | 7,030 M^−1s^−1 | 99,200 M^−1s^−1 | 920 M⁻¹ s⁻¹ | 245,000 M^−1s^−1 | 940 M⁻¹ s⁻¹ | 9,210 M^−1s^−1
6 | CC(C)C[C@H](NC(=O)OCc1ccccc1)C(=O)N[C@@H](CCC(=O)O)C(=O)N[C@H](C(=O)NN(CC(=O)O)C(=O)/C=C/C(=O)N(Cc1ccccc1)Cc1ccccc1)[C@@H](C)O (relative stereo) [Cbz-Leu-Glu-Thr-AAsp-CH═CH—CON(CH2Ph)2, N^2—(N-Benzyloxycarbonylleucylglutamylthreonyl)-N^1-carboxylmethyl-N^1-trans-(3-dibenzylcarbamoylpropenoyl)hydrazine] | 110 | 8,630 M^−1s^−1 | 14,100 M^−1s^−1 | 760 M⁻¹ s⁻¹ | 129,000 M^−1s^−1 | 1,105 M^−1s^−1 | 8,080 M^−1s^−1
7 | CC(C)C[C@H](NC(=O)OCc1ccccc1)C(=O)N[C@@H](CCC(=O)O)C(=O)N[C@H](C(=O)NN(CC(=O)O)C(=O)/C=C/C(=O)N(C)Cc1ccccc1)[C@@H](C)O (relative stereo) [Cbz-Leu-Glu-Thr-AAsp-CH═CH—CON(CH3)CH2Ph, N^1-trans-(3-Benzylmethylcarbamoylpropenoyl)-N^2—(N-benzyloxycarbonylleucylglutamylthreonyl)-N^1-carboxylmethylhydrazine] | 140 | 6,000 M^−1s^−1 | 10,800 M^−1s^−1 | 520 M⁻¹ s⁻¹ | 169,000 M^−1s^−1 | 4,320 M^−1s^−1 | 8,430 M^−1s^−1
8 | CC(C)C[C@H](NC(=O)OCc1ccccc1)C(=O)N[C@@H](CCC(=O)O)C(=O)N[C@H](C(=O)NN(CC(=O)O)C(=O)/C=C/C(=O)NCCc1ccccc1)[C@@H](C)O (relative stereo) [Cbz-Leu-Glu-Thr-AAsp-CH═CH—CONHCH2CH2Ph, N^2—(N-Benzyloxycarbonylleucylglutamylthreonyl)-N^1-carboxylmethyl-N^1-trans-(3-phenylethylcarbamoylpropenoyl)hydrazine] | 110 | 5,400 M^−1s^−1 | 2,150 M^−1s^−1 | 440 M⁻¹ s⁻¹ | 121,000 M^−1s^−1 | 1,760 M^−1s^−1 | 17,900 M^−1s^−1
9 | CC(C)C[C@H](NC(=O)OCc1ccccc1)C(=O)N[C@@H](CCC(=O)O)C(=O)N[C@H](C(=O)NN(CC(=O)O)C(=O)/C=C/C(=O)NCc1ccccc1)[C@@H](C)O (relative stereo) [Cbz-Leu-Glu-Thr-AAsp-CH═CH—CONHCH2Ph, N^1-trans-(3-Benzylcarbamoylpropenoyl)-N^2—(N-benzyloxycarbonylleucylglutamylthreonyl)-N^1-carboxylmethylhydrazine] | 66 | 1,120 M^−1s^−1 | 1,550 M^−1s^−1 | 340 M⁻¹ s⁻¹ | 70,170 M^−1s^−1 | 1,400 M^−1s^−1 | 14,400 M^−1s^−1
